Values of other authors, collected in US20100028425A1, “PHARMACEUTICAL COMPOSITION OF ATOVAQUONE” (GLENMARK GENERICS LTD., priority 2008, published 2010).

Compound: O=C1C(O)=C([C@H]2CC[C@H](c3ccc(Cl)cc3)CC2)C(=O)c2ccccc21 [Atovaquone, trans 2-[4-(4-chlorophenyl)cyclohexyl]-3-hydroxy-1,4-naphthalenedione]
- solubility in water: practically insoluble
